{"source": "patent US10882860B2", "about": "“Treatment of osteoarthritis” (Samumed, LLC, priority 2015, dated 2021)", "key": {"[1]": {"test": "Competitive slurry experiments between polymorph forms (thermodynamic stability)", "type": "physicochemical", "conditions": "competitive slurry of mixed forms", "method": "In order to find out the thermodynamic stability between the different forms, several competitive slurry experiments were carried out. Form 1, Form 2, Form 2*, Form 3, Form 4, Form 4*, Form 4**, Form 5, Form 7, Form 8, Form 9, Form 10, Form 11, Form 11*, and Form 13 (10 mg for each) was mixed and slurried in 2 mL of solvent at both RT and 50° C. The solids were slurried for 3-5 days and then analyzed by XRD.\nIn order to find out the thermodynamic stability between Form 13 and Form 9, several competitive slurry experiments were carried out. 15 mg of Form 1, Form 9 and Form 13 solid were mixed in 1 mL of toluene, IPAc, and n-butyl acetate, and slurried for 3 days at RT and 50° C.\nThe residual solid was analyzed by XRD."}, "[2]": {"system": "chondrogenic and osteogenic gene expression in human MSCs", "test": "Chondrogenic and osteogenic gene expression, qRT-PCR in human MSCs", "type": "cell-based", "conditions": "10 nM and 30 nM, 21 days", "method": "Human MSCs were plated in 10 cm dishes in chondrogenic induction medium (Lonza; DMEM, dexamethasone, ascorbate, insulin-transferrin-selenium [ITS supplement], gentamycin-amphotericin [GA-1000], sodium pyruvate, proline and L-glutamine) and treated with the compound of Formula (I) in DMSO (10 nM and 30 nM) or TGF-β3 (20 μg/mL) as a positive control. Cells were incubated at 37° C., 5% CO2 for 21 days, with media changes every 5 days. Cells were pelleted and washed, and total RNA was isolated and purified using RNeasy Plus Mini Kit (Qiagen). cDNA was synthesized from 1 μg of total RNA using QuantiTect Reverse Transcription kit (Qiagen). qRT-PCR was performed with QuantiTect SYBR Green PCR Kit (Qiagen) and gene-specific primers, using CFX384 thermal cycler (Biorad). Transcripts were quantitated by comparative Ct method and normalized to endogenous controls, β-actin and GAPDH. Fold changes were normalized to DMSO treated cells."}, "[3]": {"system": "moderate-to-severe symptomatic knee OA subjects", "test": "Phase 1 clinical study: efficacy (WOMAC, Physician Global Assessment, strict OARSI responders)", "type": "in vivo, human", "conditions": "for decrease in median WOMAC total score from baseline: FIG. 24B; for decrease in mean WOMAC total score [0-96] from baseline: FIG. 24A", "excerpt": "The study was a first-in-human, multicenter, 24-week, placebo-controlled, single-dose, dose-escalation safety study of a Wnt pathway inhibitor in subjects suffering from moderate to severe symptomatic knee OA. The sample size was 20 subjects (randomized 4:1, 16 active: 4 placebo) per dosing cohort. Inclusion criteria included: Age, 50-75 years; Western Ontario and McMaster Universities Arthritis Index (WOMAC) Total score, 36-72 (out of 96); Kellgren-Lawrence grade, 2 or 3; and a willingness to omit pain medication for 24 hours prior to pain assessments. Exclusion criteria included: BMI>40; and treatment with IA steroids within 2 months or HA derivatives within 6 months prior to injection. A full list of the inclusion and exclusion criteria for this study can be found on clinicaltrials.gov (NCT02095548).\nThe dosing sequence included suspension compositions of either 0.03 mg, 0.07 mg, or 0.23 mg of the compound of Formula (I) (Form 1) per 2 mL injection in a vehicle containing 0.5% carboxymethylcellulose sodium and 0.05% polysorbate 80 in pH 7.4 phosphate buffered saline. The placebo contained only the diluent of 0.5% carboxymethylcellulose sodium and 0.05% polysorbate 80 in pH 7.4 phosphate buffered saline. The subjects were given a single, intra-articular injection in the target knee on Treatment Day 1 and participated in a follow-up period of 24 weeks.\nSafety, pharmacokinetics (PK), biomarker, and efficacy data were collected at baseline and during the 24-week follow-up period. Safety data included adverse events (AEs), concomitant medications, clinical laboratory sampling, medical history, vital signs, ECGs, hip bone density (DXA) analysis, qCT of the target knee, and evaluation of bone edema via MM. For PK data, samples were collected 0, 4, and 24 hours post dose, and at Weeks 4 and 12. Biomarker data included data for procollagen type 1 N-propeptide (P1NP), beta C-terminal telopeptide of type 1 collagen (βCTX), and cartilage oligomeric matrix protein (COMP). Efficacy data included measurements of WOMAC Total score, WOMAC Function and Pain subscores, pain VAS, Physician Global Assessment of Disease Activity, MM, and radiographs. Efficacy assessments were used to determine the percentage of OMERACT-OARSI “strict” responders. Exploratory analyses of efficacy outcomes were conducted using a baseline-adjusted repeated measures analysis of covariance (ANCOVA) in the Intention-to-Treat (ITT) population. The sponsor was unblinded after Week 12 for each cohort; site investigators remained blinded. All AEs reported in this study were […]. Investigator opinion regarding whether AEs were related to the compound of Formula (I) was also collected for informational purposes.\nStrict responders were classified by having either a WOMAC Function subscore improvement of ≥50% with a corresponding Function score improvement of ≥20 points (scaled to [0-100]), or a WOMAC Pain subscore improvement of ≥50% with a corresponding Pain score improvement of ≥20 points (scaled to [0-100])."}}, "note": "Marks after values point to notes of the source that are not given here.", "data": [{"molecule": "CC(C)CC(=O)Nc1cncc(-c2ccc3[nH]nc(-c4nc5c(-c6cccc(F)c6)cncc5[nH]4)c3c2)c1", "note": "[compound of Formula (I)]", "values": [{"measurement": "Form after 3 days; dry", "setting": "[1]; Acetone, 50° C.", "value": "Form 2*/Form 2*"}, {"measurement": "Form after 3 days; wet", "setting": "[1]; Acetone, 50° C.", "value": "Form 2*/Form 2*"}, {"measurement": "Form after 5 days; dry", "setting": "[1]; Acetone, 50° C.", "value": "Form 2*/Form 2*"}, {"measurement": "Form after 5 days; wet", "setting": "[1]; Acetone, 50° C.", "value": "Form 2*/Form 2*"}, {"measurement": "Form after 3 days; dry", "setting": "[1]; Acetone, RT", "value": "Form 2*/Form 2*"}, {"measurement": "Form after 3 days; wet", "setting": "[1]; Acetone, RT", "value": "Form 2*/Form 2*"}, {"measurement": "Form after 5 days; dry", "setting": "[1]; Acetone, RT", "value": "Form 2*/Form 2*"}, {"measurement": "Form after 5 days; wet", "setting": "[1]; Acetone, RT", "value": "Form 2*/Form 2*"}, {"measurement": "Form after 3 days; dry", "setting": "[1]; EA, 50° C.", "value": "Form 4/Form 4"}, {"measurement": "Form after 3 days; wet", "setting": "[1]; EA, 50° C.", "value": "Form 4/Form 4"}, {"measurement": "Form after 5 days; dry", "setting": "[1]; EA, 50° C.", "value": "Form 4*/Form 4*"}, {"measurement": "Form after 5 days; wet", "setting": "[1]; EA, 50° C.", "value": "Form 4*/Form 4*"}, {"measurement": "Form after 3 days; dry", "setting": "[1]; EA, RT", "value": "Form 4/Form 4"}, {"measurement": "Form after 3 days; wet", "setting": "[1]; EA, RT", "value": "Form 4/Form 4"}, {"measurement": "Form after 5 days; dry", "setting": "[1]; EA, RT", "value": "Form 4/Form 4"}, {"measurement": "Form after 5 days; wet", "setting": "[1]; EA, RT", "value": "Form 4/Form 4"}, {"measurement": "Form after 3 days; dry", "setting": "[1]; EtOH, 50° C.", "value": "Form 2*/Form 2*"}, {"measurement": "Form after 3 days; wet", "setting": "[1]; EtOH, 50° C.", "value": "Form 2*/Form 2*"}, {"measurement": "Form after 5 days; dry", "setting": "[1]; EtOH, 50° C.", "value": "Form 2*/Form 2*"}, {"measurement": "Form after 5 days; wet", "setting": "[1]; EtOH, 50° C.", "value": "Form 2*/Form 2*"}, {"measurement": "Form after 3 days; dry", "setting": "[1]; EtOH, RT", "value": "Form 2*/Form 2*"}, {"measurement": "Form after 3 days; wet", "setting": "[1]; EtOH, RT", "value": "Form 2*/Form 2*"}, {"measurement": "Form after 5 days; dry", "setting": "[1]; EtOH, RT", "value": "Form 2*/Form 2*"}, {"measurement": "Form after 5 days; wet", "setting": "[1]; EtOH, RT", "value": "Form 2*/Form 2*"}, {"measurement": "Form after 3 days; dry", "setting": "[1]; MeOH, 50° C.", "value": "Form 2*/Form 2*"}, {"measurement": "Form after 3 days; wet", "setting": "[1]; MeOH, 50° C.", "value": "Form 2*/Form 2*"}, {"measurement": "Form after 5 days; dry", "setting": "[1]; MeOH, 50° C.", "value": "Form 2*/Form 2*"}, {"measurement": "Form after 5 days; wet", "setting": "[1]; MeOH, 50° C.", "value": "Form 2*/Form 2*"}, {"measurement": "Form after 3 days; dry", "setting": "[1]; MeOH, RT", "value": "Form 2*/Form 2*"}, {"measurement": "Form after 3 days; wet", "setting": "[1]; MeOH, RT", "value": "Form 2*/Form 2*"}, {"measurement": "Form after 5 days; dry", "setting": "[1]; MeOH, RT", "value": "Form 2*/Form 2*"}, {"measurement": "Form after 5 days; wet", "setting": "[1]; MeOH, RT", "value": "Form 2*/Form 2*"}, {"measurement": "Form after 3 days; dry", "setting": "[1]; water, 50° C.", "value": "Form 13/Form 13"}, {"measurement": "Form after 3 days; wet", "setting": "[1]; water, 50° C.", "value": "Form 13/Form 13"}, {"measurement": "Form after 5 days; dry", "setting": "[1]; water, 50° C.", "value": "Form 13/Form 13"}, {"measurement": "Form after 5 days; wet", "setting": "[1]; water, 50° C.", "value": "Form 13/Form 13"}, {"measurement": "Form after 3 days; dry", "setting": "[1]; water, RT", "value": "Form 13/Form 13"}, {"measurement": "Form after 3 days; wet", "setting": "[1]; water, RT", "value": "Form 13/Form 13"}, {"measurement": "Form after 5 days; dry", "setting": "[1]; water, RT", "value": "Form l & Form 13"}, {"measurement": "Form after 5 days; wet", "setting": "[1]; water, RT", "value": "Form 13"}, {"measurement": "chondrogenic gene expression", "setting": "[2]; FIG. 18A", "value": "upregulated"}, {"measurement": "osteogenic gene expression", "setting": "[2]; FIG. 18B", "value": "downregulated"}, {"measurement": "WOMAC function [0-68], Week 12 Actual [Mean (SD)]", "setting": "[3]; 0.03 mg cohort, N 17", "value": 20.3}, {"measurement": "WOMAC function [0-68], Week 12 Change from baseline [Mean (SD)]", "setting": "[3]; 0.03 mg cohort, N 17", "value": "−18.4"}, {"measurement": "WOMAC pain [0-20], Week 12 Actual [Mean (SD)]", "setting": "[3]; 0.03 mg cohort, N 17", "value": 6.3}, {"measurement": "WOMAC pain [0-20], Week 12 Change from baseline [Mean (SD)]", "setting": "[3]; 0.03 mg cohort, N 17", "value": "−4.4"}, {"measurement": "decrease in median WOMAC total score from baseline", "setting": "[3]; 0.03 mg cohort", "value": "greater than 25"}, {"measurement": "median decrease in physician global assessment from baseline", "setting": "[3]; 0.03 mg cohort, FIG. 25B", "value": "about 48"}, {"measurement": "WOMAC function [0-68], Week 12 Actual [Mean (SD)]", "setting": "[3]; 0.07 mg cohort, N 16", "value": 18.4}, {"measurement": "WOMAC function [0-68], Week 12 Change from baseline [Mean (SD)]", "setting": "[3]; 0.07 mg cohort, N 16", "value": "−19.2"}, {"measurement": "WOMAC pain [0-20], Week 12 Actual [Mean (SD)]", "setting": "[3]; 0.07 mg cohort, N 16", "value": 5.3}, {"measurement": "WOMAC pain [0-20], Week 12 Change from baseline [Mean (SD)]", "setting": "[3]; 0.07 mg cohort, N 16", "value": "−5.6"}, {"measurement": "decrease in mean WOMAC total score [0-96] from baseline", "setting": "[3]; 0.07 mg cohort", "value": "about 27"}, {"measurement": "decrease in median WOMAC total score from baseline", "setting": "[3]; 0.07 mg cohort", "value": "greater than 25"}, {"measurement": "odds ratio (OR) of strict OARSI response vs placebo", "setting": "[3]; 0.07 mg cohort, Week 12, P=0.081", "value": 4.2}, {"measurement": "percentage of strict OARSI responders", "setting": "[3]; 0.07 mg cohort, Week 12, placebo 42%", "value": 75, "unit": "%"}, {"measurement": "WOMAC function [0-68], Week 12 Actual [Mean (SD)]", "setting": "[3]; 0.23 mg cohort, N 16", "value": 22.6}, {"measurement": "WOMAC function [0-68], Week 12 Change from baseline [Mean (SD)]", "setting": "[3]; 0.23 mg cohort, N 16", "value": "−17.8"}, {"measurement": "WOMAC pain [0-20], Week 12 Actual [Mean (SD)]", "setting": "[3]; 0.23 mg cohort, N 16", "value": 5.8}, {"measurement": "WOMAC pain [0-20], Week 12 Change from baseline [Mean (SD)]", "setting": "[3]; 0.23 mg cohort, N 16", "value": "−5.7"}, {"measurement": "decrease in mean WOMAC total score [0-96] from baseline", "setting": "[3]; all cohorts (0.03, 0.07, 0.23 mg)", "value": "≥ 23"}, {"measurement": "decrease in mean physician global assessment score [0-100] from baseline", "setting": "[3]; all cohorts (0.03, 0.07, 0.23 mg), FIG. 25A", "value": "≥ 30"}]}]}
